Reference: patent US8178506B2, “Oligomeric compounds and compositions for use in modulation of small non-coding RNAs” (Regulus Therapeutics Inc., priority 2003, dated 2012)
In the oligonucleotide strings, read from the 5' end, every base follows the letter of its sugar. An asterisk marks phosphorothioate; unmarked linkages are phosphodiester. Other units and linkages are bracketed, terminal groups are in braces. A string of capitals states the bases alone. e = 2'-O-(2-methoxyethyl) (MOE); [5mC] = 5-methylcytosine

Key:
adipocytes = assay: Triglyceride accumulation assay in adipocytes; assay type: cell-based, human; conditions: differentiating adipocytes transfected with oligomeric compound; Table 75
follistatin = assay: Follistatin mRNA expression in HepG2 cells; assay type: cell-based, human; conditions: for Follistatin mRNA expression: Experiment 2, insulin treated: HepG2 cells transfected with oligomeric compound, 1 nM insulin for four hours, UTC + 1 nM insulin = 100; for Follistatin mRNA: HepG2 cells, Experiment 1, basal (no insulin), four hours, UTC = 100

327935 (antisense e[5mC]*eT*eA*e[5mC]*e[5mC]*eT*eG*e[5mC]*eA*e[5mC]*eT*eA*eT*eA*eA*eG*e[5mC]*eA*e[5mC]*eT*eT*eT*eA) [compound 327935]
TG (triglyceride accumulation) (adipocytes): 41 percentage of untreated control (UTC)

327946 (antisense eA*eG*eG*e[5mC]*eG*eA*eA*eG*eG*eA*eT*eG*eA*e[5mC]*eA*eA*eA*eG*eG*eG*eA*eA) [compound 327946]
TG (triglyceride accumulation) (adipocytes): 82 percentage of untreated control (UTC)
Follistatin mRNA expression (follistatin): 109
Follistatin mRNA (follistatin): 103

327957 (antisense e[5mC]*eA*e[5mC]*eA*eA*eG*eT*eT*e[5mC]*eG*eG*eA*eT*e[5mC]*eT*eA*e[5mC]*eG*eG*eG*eT*eT) [compound 327957]
TG (triglyceride accumulation) (adipocytes): 29 percentage of untreated control (UTC)
Follistatin mRNA expression (follistatin): 73
Follistatin mRNA (follistatin): 69

327945 (antisense e[5mC]*eT*eG*eT*eT*e[5mC]*e[5mC]*eT*eG*e[5mC]*eT*eG*eA*eA*e[5mC]*eT*eG*eA*eG*e[5mC]*e[5mC]*eA) [compound 327945]
TG (triglyceride accumulation) (adipocytes): 48 percentage of untreated control (UTC)

327949 (antisense e[5mC]*eA*e[5mC]*eA*eA*eA*eT*eT*e[5mC]*eG*eG*eA*eT*e[5mC]*eT*eA*e[5mC]*eA*eG*eG*eG*eT*eA) [compound 327949]
TG (triglyceride accumulation) (adipocytes): 43 percentage of untreated control (UTC)
Follistatin mRNA expression (follistatin): 111
Follistatin mRNA (follistatin): 112

327873 (antisense e[5mC]*eT*eA*e[5mC]*e[5mC]*eA*eT*eA*eG*eG*eG*eT*eA*eA*eA*eA*e[5mC]*e[5mC]*eA*e[5mC]*eT) [compound 327873]
TG (triglyceride accumulation) (adipocytes): 105 percentage of untreated control (UTC)
Follistatin mRNA (follistatin): 97

327961 (antisense eG*eG*eG*eG*eT*eA*eT*eT*eT*eG*eA*e[5mC]*eA*eA*eA*e[5mC]*eT*eG*eA*e[5mC]*eA) [compound 327961]
TG (triglyceride accumulation) (adipocytes): 77 percentage of untreated control (UTC)
Follistatin mRNA expression (follistatin): 128
Follistatin mRNA (follistatin): 113

327944 (antisense eA*eA*eA*eG*eT*eG*eT*e[5mC]*eA*eG*eA*eT*eA*e[5mC]*eG*eG*eT*eG*eT*eG*eG) [compound 327944]
TG (triglyceride accumulation) (adipocytes): 38 percentage of untreated control (UTC)

327940 (antisense eG*eA*eA*e[5mC]*eA*eG*eG*eT*eA*eG*eT*e[5mC]*eT*eG*eA*eA*e[5mC]*eA*e[5mC]*eT*eG*eG*eG) [compound 327940]
TG (triglyceride accumulation) (adipocytes): 62 percentage of untreated control (UTC)

327958 (antisense e[5mC]*e[5mC]*eG*eG*e[5mC]*eT*eG*e[5mC]*eA*eA*e[5mC]*eA*e[5mC]*eA*eA*eG*eA*e[5mC]*eA*e[5mC]*eG*eA) [compound 327958]
TG (triglyceride accumulation) (adipocytes): 28 percentage of untreated control (UTC)
Follistatin mRNA expression (follistatin): 112
Follistatin mRNA (follistatin): 91

327963 (antisense eA*eA*e[5mC]*e[5mC]*eT*eA*eT*e[5mC]*e[5mC]*eT*eG*eA*eA*eT*eT*eA*e[5mC]*eT*eT*eG*eA*eA) [compound 327963]
TG (triglyceride accumulation) (adipocytes): 124 percentage of untreated control (UTC)
Follistatin mRNA expression (follistatin): 95
Follistatin mRNA (follistatin): 101

327959 (antisense e[5mC]*eA*eG*e[5mC]*e[5mC]*eG*e[5mC]*eT*eG*eT*e[5mC]*eA*e[5mC]*eA*e[5mC]*eG*e[5mC]*eA*e[5mC]*eA*eG) [compound 327959]
TG (triglyceride accumulation) (adipocytes): 33 percentage of untreated control (UTC)
Follistatin mRNA expression (follistatin): 92
Follistatin mRNA (follistatin): 98

327965 (antisense eA*eT*e[5mC]*eA*e[5mC]*eA*eT*eA*eG*eG*eA*eA*eT*eA*eA*eA*eA*eA*eG*e[5mC]*e[5mC]*eA*eT*eA) [compound 327965]
TG (triglyceride accumulation) (adipocytes): 116 percentage of untreated control (UTC)
Follistatin mRNA expression (follistatin): 79
Follistatin mRNA (follistatin): 95

327952 (antisense e[5mC]*eT*eA*e[5mC]*eG*e[5mC]*eG*eT*eA*eT*eT*e[5mC]*eT*eT*eA*eA*eG*e[5mC]*eA*eA*eT*eA) [compound 327952]
TG (triglyceride accumulation) (adipocytes): 93 percentage of untreated control (UTC)
Follistatin mRNA expression (follistatin): 100
Follistatin mRNA (follistatin): 93

327936 (antisense eA*e[5mC]*eA*eG*e[5mC]*eT*eG*eG*eT*eT*eG*eA*eA*eG*eG*eG*eG*eA*e[5mC]*e[5mC]*eA*eA) [compound 327936]
TG (triglyceride accumulation) (adipocytes): 23 percentage of untreated control (UTC)

327971 (antisense eG*eG*eA*eA*eA*eT*e[5mC]*e[5mC]*e[5mC]*eT*eG*eG*e[5mC]*eA*eA*eT*eG*eT*eG*eA*eT) [compound 327971]
TG (triglyceride accumulation) (adipocytes): 45 percentage of untreated control (UTC)

327964 (antisense e[5mC]*e[5mC]*eA*eA*eG*eT*eT*e[5mC]*eT*eG*eT*e[5mC]*eA*eT*eG*e[5mC]*eA*e[5mC]*eT*eG*eA) [compound 327964]
TG (triglyceride accumulation) (adipocytes): 60 percentage of untreated control (UTC)
Follistatin mRNA expression (follistatin): 114
Follistatin mRNA (follistatin): 97

327950 (antisense eT*e[5mC]*eA*eG*eT*eT*eT*eT*eG*e[5mC]*eA*eT*eA*eG*eA*eT*eT*eT*eG*e[5mC]*eA*e[5mC]*eA) [compound 327950]
TG (triglyceride accumulation) (adipocytes): 125 percentage of untreated control (UTC)
Follistatin mRNA expression (follistatin): 89
Follistatin mRNA (follistatin): 83
